Patent US8163724B2, “Glucocorticosteroids, processes for their preparation, pharmaceutical compositions containing them and their use in therapy” (AstraZeneca AB, priority 2007, dated 2012)

The compounds below were run against T1, recombinant human GR (Homo sapiens, UniProt P04150) (assay: Human Glucocorticoid Receptor (GR) Assay (fluorescence polarization, Panvera/Invitrogen kit)). Conditions: fluorescence polarization; GS Red tracer; 2 hours at room temperature; 100% control 10 μM Dexamethasone; read-out: Inhibition of GR binding, IC50.
T1 construct: purchased Panvera/Invitrogen P2812 (kit P2893)
T1 sequence (P04150 1-777): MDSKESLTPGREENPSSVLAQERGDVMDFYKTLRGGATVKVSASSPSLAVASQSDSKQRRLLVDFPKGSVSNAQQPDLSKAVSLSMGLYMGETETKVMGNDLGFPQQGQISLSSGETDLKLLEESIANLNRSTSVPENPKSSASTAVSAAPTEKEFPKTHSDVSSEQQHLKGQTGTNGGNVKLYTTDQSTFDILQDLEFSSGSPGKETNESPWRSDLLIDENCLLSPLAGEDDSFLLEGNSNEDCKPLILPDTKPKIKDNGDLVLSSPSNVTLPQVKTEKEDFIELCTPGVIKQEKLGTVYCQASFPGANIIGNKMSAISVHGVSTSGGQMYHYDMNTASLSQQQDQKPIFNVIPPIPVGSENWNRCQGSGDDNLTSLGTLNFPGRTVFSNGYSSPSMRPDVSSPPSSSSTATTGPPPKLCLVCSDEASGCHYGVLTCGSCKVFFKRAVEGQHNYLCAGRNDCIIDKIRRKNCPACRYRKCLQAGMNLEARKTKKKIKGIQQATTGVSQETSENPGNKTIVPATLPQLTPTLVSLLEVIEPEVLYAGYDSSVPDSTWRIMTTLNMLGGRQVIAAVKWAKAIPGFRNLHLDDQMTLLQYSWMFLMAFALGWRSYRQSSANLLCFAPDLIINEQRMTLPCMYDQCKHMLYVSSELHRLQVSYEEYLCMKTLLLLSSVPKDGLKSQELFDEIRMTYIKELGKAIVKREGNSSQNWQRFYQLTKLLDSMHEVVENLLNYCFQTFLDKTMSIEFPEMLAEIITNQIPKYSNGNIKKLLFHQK
Assay type: binding
Procedure, shortened: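 Fluorescence polarization competition with recombinant GR and GS Red fluorescent ligand plus stabilizing peptide and DTT in potassium phosphate/sodium molybdate/EDTA buffer with DMSO. Incubated 2 hours at room temperature in the dark; 0% control DMSO, 100% control 10 μM dexamethasone.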
Work on CSCOC(=O)[C@@]1(O)CC[C@H]2[C@@H]3CCC4=Cc5c(cnn5-c5ccc(F)cc5)C[C@]4(C)[C@H]3[C@@H](O)C[C@@]21C [Example 117, (Methylsulfanyl)methyl(1R,3aS,3bS,10aR,10bS,11S,12aS)-7-(4-fluorophenyl)-1,11-dihydroxy-10a,12a-dimethyl-1,2,3,3a,3b,4,5,7,10,10a,10b,11,12,12a-tetradecahydrocyclopenta[5,6]naphtho[1,2-f]indazole-1-carboxylate] yielded an IC50 of 7 nM.
With CSCSC(=O)[C@@]1(OC(C)=O)CC[C@H]2[C@@H]3CCC4=Cc5c(cnn5-c5ccc(F)cc5)C[C@]4(C)[C@H]3[C@@H](O)C[C@@]21C [Example 118, (1R,3aS,3bS,10aR,10bS,11S,12aS)-7-(4-Fluorophenyl)-11-hydroxy-10a,12a-dimethyl-1-({[(methylsulfanyl)methyl]sulfanyl}carbonyl)-1,2,3,3a,3b,4,5,7,10,10a,10b,11,12,12a-tetradecahydrocyclopenta[5,6]naphtho[1,2-f]indazol-1-yl acetate] the IC50 was 18 nM.
With CSCOC(=O)[C@@]1(OC(C)=O)CC[C@H]2[C@@H]3CCC4=Cc5c(cnn5-c5ccc(F)cc5)C[C@]4(C)[C@H]3[C@@H](O)C[C@@]21C [Example 119, (Methylsulfanyl)methyl(1R,3aS,3bS,10aR,10bS,11S,12aS)-1-(acetyloxy)-7-(4-fluorophenyl)-11-hydroxy-10a,12a-dimethyl-1,2,3,3a,3b,4,5,7,10,10a,10b,11,12,12a-tetradecahydrocyclopenta[5,6]naphtho[1,2-f]indazole-1-carboxylate] the IC50 was 4.6 nM.
CSCOC(=O)[C@@]1(OCSC)CC[C@H]2[C@@H]3CCC4=Cc5c(cnn5-c5ccc(F)cc5)C[C@]4(C)[C@H]3[C@@H](O)C[C@@]21C [Example 120, (Methylsulfanyl)methyl(1R,3aS,3bS,10aR,10bS,11S,12aS)-7-(4-fluorophenyl)-11-hydroxy-10a,12a-dimethyl-1-[(methylsulfanyl)methoxy]-1,2,3,3a,3b,4,5,7,10,10a,10b,11,12,12a-tetradecahydrocyclopenta[5,6]naphtho[1,2-f]indazole-1-carboxylate] was tested, and the IC50 was 7 nM.
CCSC(=O)COC(=O)[C@@]1(OC(C)=O)CC[C@H]2[C@@H]3CCC4=Cc5c(cnn5-c5ccc(F)cc5)C[C@]4(C)[C@H]3[C@@H](O)C[C@@]21C [Example 121, 2-(Ethylsulfanyl)-2-oxoethyl(1R,3aS,3bS,10aR,10bS,11S,12aS)-1-(acetyloxy)-7-(4-fluorophenyl)-11-hydroxy-10a,12a-dimethyl-1,2,3,3a,3b,4,5,7,10,10a,10b,11,12,12a-tetradecahydrocyclopenta[5,6]naphtho[1,2-f]indazole-1-carboxylate] showed an IC50 of 6.6 nM.
CC(=O)O[C@]1(C(=O)CO)CC[C@H]2[C@@H]3CCC4=Cc5c(cnn5-c5ccc(F)cc5)C[C@]4(C)[C@H]3[C@@H](O)C[C@@]21C [Example 122, (1R,3aS,3bS,10aR,10bS,11S,12aS)-7-(4-Fluorophenyl)-11-hydroxy-1-(hydroxyacetyl)-10a,12a-dimethyl-1,2,3,3a,3b,4,5,7,10,10a,10b,11,12,12a-tetradecahydrocyclopenta[5,6]naphtho[1,2-f]indazol-1-yl acetate] showed an IC50 of 1.3 nM.
CC(=O)O[C@]1(C(=O)CSC(C)=O)CC[C@H]2[C@@H]3CCC4=Cc5c(cnn5-c5ccc(F)cc5)C[C@]4(C)[C@H]3[C@@H](O)C[C@@]21C [Example 123, (1R,3aS,3bS,10aR,10bS,11S,12aS)-1-[(Acetylsulfanyl)acetyl]-7-(4-fluorophenyl)-11-hydroxy-10a,12a-dimethyl-1,2,3,3a,3b,4,5,7,10,10a,10b,11,12,12a-tetradecahydrocyclopenta[5,6]naphtho[1,2-f]indazol-1-yl acetate] showed an IC50 of 5.4 nM.
Compound CSCC(=O)[C@@]1(OC(C)=O)CC[C@H]2[C@@H]3CCC4=Cc5c(cnn5-c5ccc(F)cc5)C[C@]4(C)[C@H]3[C@@H](O)C[C@@]21C [Example 124, (1R,3aS,3bS,10aR,10bS,11S,12aS)-7-(4-Fluorophenyl)-11-hydroxy-10a,12a-dimethyl-1-[(methylsulfanyl)acetyl]-1,2,3,3a,3b,4,5,7,10,10a,10b,11,12,12a-tetradecahydrocyclopenta[5,6]naphtho[1,2-f]indazol-1-yl acetate] has an IC50 of 2.4 nM.
Compound CSCO[C@]1(C(=O)SCF)CC[C@H]2[C@@H]3CCC4=Cc5c(cnn5-c5ccc(F)cc5)C[C@]4(C)[C@H]3[C@@H](O)C[C@@]21C [Example 125, S-(Fluoromethyl)(1R,3aS,3bS,10aR,10bS,11S,12aS)-7-(4-fluorophenyl)-11-hydroxy-10a,12a-dimethyl-1-[(methylsulfanyl)methoxy]1,2,3,3a,3b,4,5,7,10,10a,10b,11,12,12a-tetradecahydrocyclopenta[5,6]naphtho[1,2-f]indazole-1-carbothioate] has an IC50 of 4.7 nM.
For C[C@]12Cc3cnn(-c4ccc(F)cc4)c3C=C1CC[C@@H]1[C@@H]2[C@@H](O)C[C@@]2(C)[C@H]1CC[C@]2(OC(=O)C1CCOCC1)C(=O)SCC#N [Example 126, (1R,3aS,3bS,10aR,10bS,11S,12aS)-1-{[(Cyanomethyl)sulfanyl]carbonyl}-7-(4-fluorophenyl)-11-hydroxy-10a,12a-dimethyl-1,2,3,3a,3b,4,5,7,10,10a,10b,11,12,12a-tetradecahydrocyclopenta[5,6]naphtho[1,2-f]indazol-1-yl tetrahydro-2H-pyran-4-carboxylate], the IC50 was 2.7 nM.
Work on C[C@]12Cc3cnn(-c4ccc(F)cc4)c3C=C1CC[C@@H]1[C@@H]2[C@@H](O)C[C@@]2(C)[C@H]1CC[C@]2(OC(=O)C1CCOCC1)C(=O)SCCO [Example 127, (1R,3aS,3bS,10aR,10bS,11S,12aS)-7-(4-Fluorophenyl)-11-hydroxy-1-{[(2-hydroxyethyl)sulfanyl]carbonyl}-10a,12a-dimethyl-1,2,3,3a,3b,4,5,7,10,10a,10b,11,12,12a-tetradecahydrocyclopenta[5,6]naphtho[1,2-f]indazol-1-yl tetrahydro-2H-pyran-4-carboxylate] yielded an IC50 of 3.7 nM.
CC(=O)O[C@]1(C(=O)CSC#N)CC[C@H]2[C@@H]3CCC4=Cc5c(cnn5-c5ccc(F)cc5)C[C@]4(C)[C@H]3[C@@H](O)C[C@@]21C [Example 130, (1R,3aS,3bS,10aR,10bS,11S,12aS)-7-(4-Fluorophenyl)-11-hydroxy-10a,12a-dimethyl-1-(thiocyanatoacetyl)-1,2,3,3a,3b,4,5,7,10,10a,10b,11,12,12a-tetradecahydrocyclopenta[5,6]naphtho[1,2-f]indazol-1-yl acetate] was tested, and the IC50 was 5.9 nM.
CCSCC(=O)[C@@]1(OC(C)=O)CC[C@H]2[C@@H]3CCC4=Cc5c(cnn5-c5ccc(F)cc5)C[C@]4(C)[C@H]3[C@@H](O)C[C@@]21C [Example 131, (1R,3aS,3bS,10aR,10bS,11S,12aS)-1-[(Ethylsulfanyl)acetyl]-7-(4-fluorophenyl)-11-hydroxy-10a,12a-dimethyl-1,2,3,3a,3b,4,5,7,10,10a,10b,11,12,12a-tetradecahydrocyclopenta[5,6]naphtho[1,2-f]indazol-1-yl acetate] showed an IC50 of 4.1 nM.
CSSCC(=O)[C@@]1(OC(C)=O)CC[C@H]2[C@@H]3CCC4=Cc5c(cnn5-c5ccc(F)cc5)C[C@]4(C)[C@H]3[C@@H](O)C[C@@]21C [Example 134, (1R,3aS,3bS,10aR,10bS,11S,12aS)-7-(4-Fluorophenyl)-11-hydroxy-10a,12a-dimethyl-1-[(methyldisulfanyl)acetyl]-1,2,3,3a,3b,4,5,7,10,10a,10b,11,12,12a-tetradecahydrocyclopenta[5,6]naphtho[1,2-f]indazol-1-yl acetate] gave an IC50 of 2.9 nM.
COC1(C(=O)O[C@]2(C(=O)SCC#N)CC[C@H]3[C@@H]4CCC5=Cc6c(cnn6-c6ccc(F)cc6)C[C@]5(C)[C@H]4[C@@H](O)C[C@@]32C)CC1 [Example 135, (1R,3aS,3bS,10aR,10bS,11S,12aS)-1-{[(Cyanomethyl)sulfanyl]carbonyl}-7-(4-fluorophenyl)-11-hydroxy-10a,12a-dimethyl-1,2,3,3a,3b,4,5,7,10,10a,10b,11,12,12a-tetradecahydrocyclopenta[5,6]naphtho[1,2-f]indazol-1-yl 1-methoxycyclopropanecarboxylate] was tested, and the IC50 was 7.6 nM.
Compound C[C@]12Cc3cnn(-c4ccc(F)cc4)c3C=C1CC[C@@H]1[C@@H]2[C@@H](O)C[C@@]2(C)[C@H]1CC[C@]2(OC(=O)C1CCCO1)C(=O)SCF (stereo partly drawn) [Example 137, (1R,3aS,3bS,10aR,10bS,11S,12aS)-1-{[(Fluoromethyl)sulfanyl]carbonyl}-7-(4-fluorophenyl)-11-hydroxy-10a,12a-dimethyl-1,2,3,3a,3b,4,5,7,10a,10b,11,12,12a-tetradecahydrocyclopenta[5,6]naphtho[1,2-f]indazol-1-yl (2R)-tetrahydrofuran-2-carboxylate] has an IC50 of 2.8 nM.
